The values that follow come from ChEMBL document CHEMBL3611970, “Synthesis and evaluation of isatin-β-thiosemicarbazones as novel agents against antibiotic-resistant Gram-positive bacterial species” (2015).

Assay type in all cases: functional
The subject of one assay is Bacillus spizizenii. As to the kind of experiment: Antimicrobial activity against Bacillus subtilis ATCC 6633 after 16 hrs by broth microdilution method. As to conditions: ATCC 6633, 16 h. A general note: Broth dilution looks for growth in wells or tubes with falling amounts of substance.
Assay [1] concerns Staphylococcus aureus. The assay is described as follows: Antimicrobial activity against methicillin-resistant Staphylococcus aureus 309-3 clinical isolate after 16 hrs by broth microdilution method. As to conditions: 309-3, 16 h.
The subject of assay [2] is Staphylococcus aureus. The assay is described as follows: Antimicrobial activity against Staphylococcus aureus ATCC 6538 after 16 hrs by broth microdilution method. As to conditions: ATCC 6538, 16 h.
The next assay concerns Pseudomonas aeruginosa. The assay is described as follows: Antimicrobial activity against Pseudomonas aeruginosa PAO1 after 16 hrs by broth microdilution method. As to conditions: PAO1, 16 h.
For assay [3], the system named is Staphylococcus aureus. The assay is described as follows: Antimicrobial activity against methicillin-resistant Staphylococcus aureus 309-6 clinical isolate after 16 hrs by broth microdilution method. As to conditions: 309-6, 16 h.
Assay [4] relates to Staphylococcus aureus. As to the kind of experiment: Antimicrobial activity against methicillin-resistant Staphylococcus aureus 309-7 clinical isolate after 16 hrs by broth microdilution method. As to conditions: 309-7, 16 h.
Assay [5] relates to Staphylococcus aureus. As to the kind of experiment: Antimicrobial activity against methicillin-resistant Staphylococcus aureus 6281 clinical isolate after 16 hrs by broth microdilution method. As to conditions: Staphylococcus aureus, 6281, 16 h.
Assay [6] relates to Enterococcus faecalis. As to the kind of experiment: Antimicrobial activity against vancomycin-susceptible Enterococcus faecalis after 16 hrs by broth microdilution method.
For another assay, the system named is Klebsiella pneumoniae. The assay is described as follows: Antimicrobial activity against Klebsiella pneumoniae KP-249 clinical isolate after 16 hrs by broth microdilution method. As to conditions: KP-249, 16 h.
Assay [7] concerns Staphylococcus aureus. As to the kind of experiment: Antimicrobial activity against methicillin-resistant Staphylococcus aureus 6-42 clinical isolate after 16 hrs by broth microdilution method. As to conditions: 6-42, 16 h.
Assay [8] relates to Staphylococcus aureus. As to the kind of experiment: Antimicrobial activity against methicillin-resistant Staphylococcus aureus 309-4 clinical isolate after 16 hrs by broth microdilution method. As to conditions: 309-4, 16 h.
Assay [9] has as its system Enterococcus faecalis. The assay is described as follows: Antimicrobial activity against Enterococcus faecalis VRE-309 after 16 hrs by broth microdilution method. As to conditions: VRE-309, 16 h.
Assay [10] has as its system Staphylococcus aureus. As to the kind of experiment: Antimicrobial activity against methicillin-resistant Staphylococcus aureus 8-24 clinical isolate after 16 hrs by broth microdilution method. As to conditions: 8-24, 16 h.
Assay [11] deals with Staphylococcus aureus. The assay is described as follows: Antimicrobial activity against methicillin-resistant Staphylococcus aureus Chaoyang clinical isolate after 16 hrs by broth microdilution method.
Assay [12] relates to Staphylococcus aureus. The assay is described as follows: Antimicrobial activity against methicillin-resistant Staphylococcus aureus 8-21 clinical isolate after 16 hrs by broth microdilution method. As to conditions: 8-21, 16 h.
For assay [13], the system named is Staphylococcus aureus. As to the kind of experiment: Antimicrobial activity against methicillin-resistant Staphylococcus aureus 309-8 clinical isolate after 16 hrs by broth microdilution method. As to conditions: 309-8, 16 h.
The test system of assay [14] is Staphylococcus aureus. As to the kind of experiment: Antimicrobial activity against methicillin-resistant Staphylococcus aureus 309-1 clinical isolate after 16 hrs by broth microdilution method. As to conditions: 309-1, 16 h.

Structures are written as SMILES. Values after ≈ are worked out from the molar mass of the structure shown.

In general, MIC refers to the smallest concentration in the dilution series that meets the test's criterion for growth inhibition. A low value points to inhibition by little substance. Consider `Cc1cccc2c1NC(=O)/C2=N\NC(=S)Nc1ccc(Cl)cc1`, for which the MIC in the assay with Bacillus spizizenii is 1.56 µg/mL (≈ 4.52 µM); against Staphylococcus aureus [1] it was 3.12 µg/mL (≈ 9.05 µM); against Staphylococcus aureus [2] it was 1.56 µg/mL (≈ 4.52 µM); in the assay with Pseudomonas aeruginosa it was over 100 µg/mL; with Staphylococcus aureus [3], 3.12 µg/mL (≈ 9.05 µM); in the assay on Staphylococcus aureus [4], 1.56 µg/mL (≈ 4.52 µM). Moreover, the MIC against Staphylococcus aureus [5] was 3.12 µg/mL (≈ 9.05 µM); with Enterococcus faecalis [6], 3.12 µg/mL (≈ 9.05 µM); against Klebsiella pneumoniae it was over 100 µg/mL; in the assay on Staphylococcus aureus [7], 1.56 µg/mL (≈ 4.52 µM); with Staphylococcus aureus [8], 1.56 µg/mL (≈ 4.52 µM); against Enterococcus faecalis [9], 1.56 µg/mL (≈ 4.52 µM). In addition, the MIC with Staphylococcus aureus [10] came out at 1.56 µg/mL (≈ 4.52 µM); in the assay on Staphylococcus aureus [11], 0.78 µg/mL (≈ 2.26 µM); in the assay on Staphylococcus aureus [12], 1.56 µg/mL (≈ 4.52 µM); with Staphylococcus aureus [13] it was 1.56 µg/mL (≈ 4.52 µM); in the assay on Staphylococcus aureus [14] it was 1.56 µg/mL (≈ 4.52 µM).

Regarding `O=C1Nc2c(Cl)cccc2/C1=N/NC(=S)Nc1ccccc1`, the MIC is at most 0.78 µg/mL against Bacillus spizizenii; 6.25 µg/mL (≈ 18.9 µM) in the assay on Staphylococcus aureus [1]; 1.56 µg/mL (≈ 4.72 µM) with Staphylococcus aureus [2]; over 100 µg/mL in the assay with Pseudomonas aeruginosa; 6.25 µg/mL (≈ 18.9 µM) against Staphylococcus aureus [3]; 0.78 µg/mL (≈ 2.36 µM) in the assay on Staphylococcus aureus [4]. Also, the minimum inhibitory concentration (MIC) is 1.56 µg/mL (≈ 4.72 µM) against Staphylococcus aureus [5]; 6.25 µg/mL (≈ 18.9 µM) against Enterococcus faecalis [6]; over 100 µg/mL against Klebsiella pneumoniae; 3.12 µg/mL (≈ 9.43 µM) with Staphylococcus aureus [7]; 1.56 µg/mL (≈ 4.72 µM) in the assay on Staphylococcus aureus [8]; 3.12 µg/mL (≈ 9.43 µM) against Enterococcus faecalis [9]. Besides, the MIC with Staphylococcus aureus [10] amounted to 1.56 µg/mL (≈ 4.72 µM); in the assay on Staphylococcus aureus [11], 0.78 µg/mL (≈ 2.36 µM); against Staphylococcus aureus [12] it was 3.12 µg/mL (≈ 9.43 µM); in the assay on Staphylococcus aureus [13] it was 1.56 µg/mL (≈ 4.72 µM); in the assay on Staphylococcus aureus [14], 6.25 µg/mL (≈ 18.9 µM).

With `COc1cccc(NC(=S)N/N=C2\C(=O)Nc3c(F)cccc32)c1`, the MIC in the assay on Bacillus spizizenii was 1.56 µg/mL (≈ 4.53 µM); against Staphylococcus aureus [1], 1.56 µg/mL (≈ 4.53 µM); with Staphylococcus aureus [2], 3.12 µg/mL (≈ 9.06 µM); against Pseudomonas aeruginosa it was over 100 µg/mL; in the assay on Staphylococcus aureus [3], 3.12 µg/mL (≈ 9.06 µM); against Staphylococcus aureus [4], 1.56 µg/mL (≈ 4.53 µM). In addition, the MIC with Staphylococcus aureus [5] is 3.12 µg/mL (≈ 9.06 µM); with Enterococcus faecalis [6] it was over 100 µg/mL; against Klebsiella pneumoniae, over 100 µg/mL; in the assay with Staphylococcus aureus [7] it was 1.56 µg/mL (≈ 4.53 µM); in the assay on Staphylococcus aureus [8], 1.56 µg/mL (≈ 4.53 µM); in the assay on Enterococcus faecalis [9] it was over 100 µg/mL. Further, the MIC in the assay with Staphylococcus aureus [10] came out at 3.12 µg/mL (≈ 9.06 µM); against Staphylococcus aureus [11], 1.56 µg/mL (≈ 4.53 µM); against Staphylococcus aureus [12] it was 1.56 µg/mL (≈ 4.53 µM); in the assay on Staphylococcus aureus [13] it was 1.56 µg/mL (≈ 4.53 µM); against Staphylococcus aureus [14] it was 1.56 µg/mL (≈ 4.53 µM).

`O=C1Nc2ccc(Cl)cc2/C1=N/NC(=S)Nc1ccc(F)cc1`: the MIC against Bacillus spizizenii is 6.25 µg/mL (≈ 17.9 µM); with Staphylococcus aureus [2] it was 12.5 µg/mL (≈ 35.8 µM); in the assay with Staphylococcus aureus [11], 3.12 µg/mL (≈ 8.95 µM).

As to `O=C1Nc2c(Cl)cccc2/C1=N/NC(=S)Nc1ccc(Cl)cc1`, the MIC is at most 0.78 µg/mL in the assay on Bacillus spizizenii; 1.56 µg/mL (≈ 4.27 µM) with Staphylococcus aureus [1]; 1.56 µg/mL (≈ 4.27 µM) with Staphylococcus aureus [2]; over 100 µg/mL against Pseudomonas aeruginosa; 1.56 µg/mL (≈ 4.27 µM) with Staphylococcus aureus [3]; 0.78 µg/mL (≈ 2.14 µM) in the assay with Staphylococcus aureus [4]. Moreover, the MIC in the assay with Staphylococcus aureus [5] is 1.56 µg/mL (≈ 4.27 µM); with Enterococcus faecalis [6], 3.12 µg/mL (≈ 8.54 µM); against Klebsiella pneumoniae, over 100 µg/mL; against Staphylococcus aureus [7], 0.78 µg/mL (≈ 2.14 µM); with Staphylococcus aureus [8], 0.78 µg/mL (≈ 2.14 µM); in the assay with Enterococcus faecalis [9] it was 1.56 µg/mL (≈ 4.27 µM). In addition, the MIC in the assay with Staphylococcus aureus [10] is 1.56 µg/mL (≈ 4.27 µM); in the assay on Staphylococcus aureus [11], 0.39 µg/mL (≈ 1.07 µM); with Staphylococcus aureus [12], 0.78 µg/mL (≈ 2.14 µM); in the assay with Staphylococcus aureus [13], 1.56 µg/mL (≈ 4.27 µM); against Staphylococcus aureus [14], 0.78 µg/mL (≈ 2.14 µM).

Consider `CN[C@H](CC(C)C)C(=O)N[C@H]1C(=O)N[C@@H](CC(N)=O)C(=O)N[C@H]2C(=O)N[C@H]3C(=O)N[C@H](C(=O)N[C@H](C(=O)O)c4cc(O)cc(O)c4-c4cc3ccc4O)[C@H](O)c3ccc(c(Cl)c3)Oc3cc2cc(c3O[C@@H]2O[C@H](CO)[C@@H](O)[C@H](O)[C@H]2O[C@H]2C[C@](C)(N)[C@H](O)[C@H](C)O2)Oc2ccc(cc2Cl)[C@H]1O` [VANCOMYCIN], for which the values for the MIC in the assay with Bacillus spizizenii, in the assay with Enterococcus faecalis [6] and against Enterococcus faecalis [9] were 0.5 µg/mL (≈ 0.345 µM), 2 µg/mL (≈ 1.38 µM) and over 8 µg/mL, respectively.

In the case of `COc1cccc(OC)c1C(=O)N[C@@H]1C(=O)N2[C@@H]1SC(C)(C)[C@@H]2C(=O)O` [METHICILLIN], the MIC against Staphylococcus aureus [1], against Staphylococcus aureus [3], in the assay on Staphylococcus aureus [4], against Staphylococcus aureus [5], against Staphylococcus aureus [7] and in the assay on Staphylococcus aureus [8] was over 200 µg/mL throughout. Moreover, the MIC against Staphylococcus aureus [10], with Staphylococcus aureus [12], with Staphylococcus aureus [13] and against Staphylococcus aureus [14] was over 200 µg/mL throughout.

On to `O=C1Nc2c(Br)cccc2/C1=N/NC(=S)Nc1ccc(Br)cc1`, for which the MIC is 1.56 µg/mL (≈ 3.44 µM) against Bacillus spizizenii; 1.56 µg/mL (≈ 3.44 µM) with Staphylococcus aureus [1]; 3.12 µg/mL (≈ 6.87 µM) in the assay with Staphylococcus aureus [2]; over 100 µg/mL against Pseudomonas aeruginosa; 1.56 µg/mL (≈ 3.44 µM) with Staphylococcus aureus [3]; 0.78 µg/mL (≈ 1.72 µM) with Staphylococcus aureus [4]. Further, the MIC is 3.12 µg/mL (≈ 6.87 µM) against Staphylococcus aureus [5]; 3.12 µg/mL (≈ 6.87 µM) in the assay on Enterococcus faecalis [6]; over 100 µg/mL in the assay on Klebsiella pneumoniae; 0.78 µg/mL (≈ 1.72 µM) in the assay with Staphylococcus aureus [7]; 0.78 µg/mL (≈ 1.72 µM) in the assay on Staphylococcus aureus [8]; 1.56 µg/mL (≈ 3.44 µM) against Enterococcus faecalis [9]. Further, the MIC stood at 1.56 µg/mL (≈ 3.44 µM) against Staphylococcus aureus [10]; 0.39 µg/mL (≈ 0.859 µM) against Staphylococcus aureus [11]; 1.56 µg/mL (≈ 3.44 µM) in the assay on Staphylococcus aureus [12]; 1.56 µg/mL (≈ 3.44 µM) with Staphylococcus aureus [13]; 1.56 µg/mL (≈ 3.44 µM) with Staphylococcus aureus [14].

Take `Cc1cccc(NC(=S)N/N=C2\C(=O)Nc3c(F)cccc32)c1`: the MIC was at most 0.78 µg/mL in the assay with Bacillus spizizenii; 0.78 µg/mL (≈ 2.38 µM) against Staphylococcus aureus [1]; 1.56 µg/mL (≈ 4.75 µM) in the assay on Staphylococcus aureus [2]; over 100 µg/mL in the assay with Pseudomonas aeruginosa; 1.56 µg/mL (≈ 4.75 µM) in the assay on Staphylococcus aureus [3]; 0.78 µg/mL (≈ 2.38 µM) in the assay on Staphylococcus aureus [4]. Also, the MIC with Staphylococcus aureus [5] is 1.56 µg/mL (≈ 4.75 µM); with Enterococcus faecalis [6], 3.12 µg/mL (≈ 9.5 µM); in the assay on Klebsiella pneumoniae it was over 100 µg/mL; in the assay on Staphylococcus aureus [7], 0.78 µg/mL (≈ 2.38 µM); in the assay with Staphylococcus aureus [8], 0.78 µg/mL (≈ 2.38 µM); with Enterococcus faecalis [9] it was 3.12 µg/mL (≈ 9.5 µM). The minimal inhibitory concentration (MIC) with Staphylococcus aureus [10] came out at 1.56 µg/mL (≈ 4.75 µM); against Staphylococcus aureus [11] it was 0.39 µg/mL (≈ 1.19 µM); against Staphylococcus aureus [12], 0.78 µg/mL (≈ 2.38 µM); against Staphylococcus aureus [13] it was 0.78 µg/mL (≈ 2.38 µM); against Staphylococcus aureus [14], 0.78 µg/mL (≈ 2.38 µM).

Turning to `O=C1Nc2ccc([N+](=O)[O-])cc2/C1=N/NC(=S)Nc1ccc(F)cc1`, the results for the MIC against Bacillus spizizenii, against Staphylococcus aureus [2] and in the assay on Staphylococcus aureus [11] were 25 µg/mL (≈ 69.6 µM), 6.25 µg/mL (≈ 17.4 µM) and 12.5 µg/mL (≈ 34.8 µM), respectively.
